From patent publication US9434711B2 (Janssen Pharmaceutica, NV, priority 2007, dated 2016) come the findings set out here.

The target in this assay is canine TRPM8 (Canis lupus familiaris, UniProt Q1A7N1). The assay is described as follows: In Vitro Canine TRPM8 Functional Assay (Ca2+ fluorescence, icilin activation). The following applies: for IC50: HEK293 cells stably expressing canine TRPM8, icilin activation, eight-point dose-response, read-out: IC50; for % Inh @ 0.2 (μM) / inhibition at 0.2 µM: compound at 0.2 μM; for % Inh @ 0.2 (μM) / inhibition at 0.2 µM / inhibition at 0.5 µM: canine TRPM8, icilin activation; for inhibition at 0.2 µM: read-out: % Inh @ 0.2; for inhibition at 0.5 µM: compound at 0.5 μM, read-out: % Inh @ 0.5. It is filed as cell-based. The method in brief:
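Eight-point dose-response curves, each point averaging quadruplicate wells, gave EC50 or IC50. Canine TRPM8-expressing HEK293 cells, dye-loaded (Calcium 3), were pre-exposed 5 min to compound, then challenged with icilin at roughly EC80; intracellular Ca2+ read by FLIPR or FDSS fluorescence.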

Sequence of canine TRPM8 (Q1A7N1 1-1104): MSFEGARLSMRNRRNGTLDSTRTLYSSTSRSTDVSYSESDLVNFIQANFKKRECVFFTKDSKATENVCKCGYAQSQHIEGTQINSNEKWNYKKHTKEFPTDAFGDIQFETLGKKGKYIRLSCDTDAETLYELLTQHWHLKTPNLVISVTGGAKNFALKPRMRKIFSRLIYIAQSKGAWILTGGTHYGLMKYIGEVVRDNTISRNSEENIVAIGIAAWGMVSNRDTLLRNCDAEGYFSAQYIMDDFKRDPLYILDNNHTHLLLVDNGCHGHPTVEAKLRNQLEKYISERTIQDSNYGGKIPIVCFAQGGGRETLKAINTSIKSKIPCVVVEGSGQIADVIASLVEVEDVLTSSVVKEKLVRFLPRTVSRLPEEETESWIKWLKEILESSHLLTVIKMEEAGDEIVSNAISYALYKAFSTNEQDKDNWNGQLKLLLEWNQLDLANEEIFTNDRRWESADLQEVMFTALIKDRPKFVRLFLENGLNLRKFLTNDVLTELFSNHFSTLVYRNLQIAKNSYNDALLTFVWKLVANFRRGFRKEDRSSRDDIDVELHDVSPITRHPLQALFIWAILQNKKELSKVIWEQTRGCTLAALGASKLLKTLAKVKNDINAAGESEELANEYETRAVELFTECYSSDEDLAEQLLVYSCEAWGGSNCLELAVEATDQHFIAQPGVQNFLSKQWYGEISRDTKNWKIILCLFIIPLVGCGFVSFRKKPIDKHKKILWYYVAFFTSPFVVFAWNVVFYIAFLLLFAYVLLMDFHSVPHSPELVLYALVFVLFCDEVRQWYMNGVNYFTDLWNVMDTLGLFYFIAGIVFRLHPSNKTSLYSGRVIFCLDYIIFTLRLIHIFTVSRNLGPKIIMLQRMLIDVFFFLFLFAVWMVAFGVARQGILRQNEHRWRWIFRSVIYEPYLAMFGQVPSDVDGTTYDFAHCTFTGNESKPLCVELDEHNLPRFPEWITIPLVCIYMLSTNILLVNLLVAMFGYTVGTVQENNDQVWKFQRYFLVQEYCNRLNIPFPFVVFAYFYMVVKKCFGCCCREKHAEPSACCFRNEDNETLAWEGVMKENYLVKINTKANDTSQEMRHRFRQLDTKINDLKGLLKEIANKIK

A word on the IC50: it is the point on the concentration scale where inhibition reaches its midpoint. Consider `CC(C)(O)c1c(N(Cc2ccc(OC(F)(F)F)cc2)S(=O)(=O)c2ccc(C(=O)[O-])cc2)sc2ccccc12.[Na+]` [Compound 781, Sodium, N-(3-(1-Hydroxy-1-methyl-ethyl)-benzo[b]thiophen-2-yl)-N-(4-trifluoromethoxy)benzyl-4-carboxy-benzenesulfonamide], for which the IC50 came to 3 nM and the “% Inh @ 0.2 (μM)” value amounted to 102%.

As to `COC(=O)CCS(=O)(=O)N(CCC(F)(F)F)c1sc2ccccc2c1C` [Compound 601, N-(3-Methyl-benzo[b]thiophen-2-yl)-N-(3,3,3-trifluoro-propyl)-2-carbomethoxy-ethanesulfonamide], the inhibition at 0.2 µM came out at 100%.

In the case of `CC(=O)c1c(N(Cc2ccc(OC(F)(F)F)cc2)S(=O)(=O)c2ccc(Br)cc2)sc2ccccc12` [Compound 731, N-(3-Acetyl-benzo[b]thiophen-2-yl)-4-bromo-N-(4-(trifluoromethoxy)-benzyl)benzenesulfonamide], the IC50 is 44.4 nM and the inhibition at 0.2 µM amounted to 87%.

With `CC(C)(O)c1c(N(Cc2ccc(OC(F)(F)F)cc2)S(=O)(=O)c2ccc(Br)cc2)sc2ccccc12` [Compound 735, N-(3-(1-Hydroxy-1-methyl-ethyl)-benzo[b]thiophen-2-yl)-N-(4-trifluoromethoxybenzyl)-4-bromo-benzenesulfonamide], the concentration for half-maximal inhibition (IC50) was found to be 26.8 nM and the inhibition at 0.2 µM turned out to be 101%.

Regarding `Cc1c(N(CCCCC(F)(F)F)S(=O)(=O)c2nc3ccccc3[nH]2)sc2ccccc12` [Compound 720, N-(3-Methyl-benzo[b]thiophen-2-yl)-N-(5,5,5-trifluoro-pentyl)-1H-benzimidazole-2-sulfonamide], the inhibition at 0.2 µM was found to be 52%.

For `COC(=O)CS(=O)(=O)N(Cc1ccc(F)c(C(F)(F)F)c1)c1sc2ccccc2c1C` [Compound 791, N-(4-Fluoro-3-trifluoromethyl-benzyl)-N-(3-methyl-benzo[b]thiophen-2-yl)-carbomethoxy-methanesulfonamide], the IC50 worked out at 23.1 nM and the inhibition at 0.2 µM is 95%.

For the molecule `Cc1c(N(Cc2ccc(OC(F)(F)F)cc2)S(=O)(=O)c2nc3ccccc3[nH]2)sc2ccccc12` [Compound 729, N-(3-Methyl-benzo[b]thiophen-2-yl)-N-(4-trifluoromethoxy-benzyl)-1H-benzimidazole-2-sulfonamide], the inhibition at 0.2 µM is 75%.

With `CC1=C(N(CCC(F)(F)F)S(=O)(=O)c2ccccc2)S(=O)(=O)c2ccccc21` [Compound 619, N-(3-Methyl-1,1-dioxo-benzo[b]thiophen-2-yl)-N-(3,3,3-trifluoro-propyl)-benzenesulfonamide], the concentration for half-maximal inhibition (IC50) was determined as 39.8 nM and the inhibition at 0.2 µM is 101%.

For `CCN(c1sc2ccccc2c1C)S(=O)(=O)c1ccc(C(=O)O)cc1` [Compound 403, N-(3-Methyl-benzo[b]thiophen-2-yl)-N-(ethyl)-4-carboxy-benzenesulfonamide], the inhibition at 0.2 µM amounted to 52%.

Take `CC(O)c1c(N(Cc2ccc(F)c(C(F)(F)F)c2)S(C)(=O)=O)sc2ccccc12` (stereo not drawn) [Compound 224, N-(4-Fluoro-3-trifluoromethyl-benzyl)-N-[3-(1-hydroxy-ethyl)-benzo[b]thiophen-2-yl]-methanesulfonamide]: the 50% inhibitory concentration (IC50) came to 1 nM and the inhibition at 0.2 µM is 100%.

For the molecule `CCS(=O)(=O)N(Cc1ccc(F)c(C(F)(F)F)c1)c1sc2ccccc2c1C(C)=O` [Compound 205, N-(3-Acetyl-benzo[b]thiophen-2-yl)-N-(4-fluoro-3-trifluoromethyl-benzyl)-ethanesulfonamide], the IC50 came to 3 nM and the inhibition at 0.5 µM is 96%.

For the molecule `CC1=C(N(CCCCC(F)(F)F)S(=O)(=O)c2ccc(C(=O)O)cc2)S(=O)(=O)c2ccccc21` [Compound 633, N-(3-Methyl-1,1-dioxo-benzo[b]thiophen-2-yl)-N-(5,5,5-trifluoro-pentyl)-4-carboxy-benzenesulfonamide], the inhibition at 0.2 µM amounted to 17%.

For the molecule `CNc1ccc(S(=O)(=O)N(CCC2CC2)c2sc3ccccc3c2Cl)cc1Cl` [Compound 691, 3-Chloro-N-(3-chloro-benzo[b]thiophen-2-yl)-N-(2-cyclopropyl-ethyl)-4-methylamino-benzenesulfonamide], the IC50 stood at 16 nM and the inhibition at 0.2 µM was found to be 102%.

`Cc1c(N(CCC2CC2)S(=O)(=O)c2ccc(N3CCOCC3)cc2)sc2ccccc12` [Compound 741, N-(3-Methyl-benzo[b]thiophen-2-yl)-N-(cyclopropyl-ethyl)-4-morpholino-benzenesulfonamide]: the 50% inhibitory concentration (IC50) was found to be 17.3 nM and the inhibition at 0.2 µM was 101%.

Consider `NC(=O)c1ccc(S(=O)(=O)N(CCCC(F)(F)F)c2cc3ccccc3s2)cc1` [Compound 414, N-(Benzo[b]thiophen-2-yl)-N-(4,4,4-trifluoro-butyl)-4-carboxamide-benzene-sulfonamide], for which the “% Inh @ 0.2 (μM)” value was determined as 33%.

In the case of `O=C(O)c1ccc(S(=O)(=O)N(CCC(F)(F)F)c2sc3ccccc3c2Cl)cc1` [Compound 480, N-(3-Chloro-benzo[b]thiophen-2-yl)-N-(3,3,3-trifluoro-propyl)-4-carboxy-benzenesulfonamide], the IC50 amounted to 13 nM and the inhibition at 0.2 µM stood at 100%.

With `Cc1c(N(Cc2ccc(F)c(C(F)(F)F)c2)S(=O)(=O)c2cccnc2N(C)C)sc2ccccc12` [Compound 358, N-(3-Methyl-benzo[b]thiophen-2-yl)-N-(4-fluoro-3-trifluoromethyl-benzyl)-2-dimethylamino-pyridin-3-yl-sulfonamide], the IC50 turned out to be 12 nM and the inhibition at 0.2 µM was found to be 92%.

As to `Cc1c(N(Cc2ccc(F)c(C(F)(F)F)c2)S(=O)(=O)c2ccc3c(c2)NC(=O)CO3)sc2ccccc12` [Compound 67], the concentration for half-maximal inhibition (IC50) stood at 55 nM and the “% Inh @ 0.2 (μM)” value turned out to be 77%.

With `CCCCN(C1=C(Br)c2ccccc2S1(=O)=O)S(=O)(=O)c1ccc(C(=O)OC)cc1` [Compound 433, N-(3-Bromo-1,1-dioxo-benzo[b]thiophen-2-yl)-N-(butyl)-4-carbomethoxy-benzenesulfonamide], the IC50 worked out at 33 nM and the inhibition at 0.2 µM was 93%.

As for `NC(=O)c1c(N(Cc2ccc(F)c(C(F)(F)F)c2)S(=O)(=O)c2ccccc2)sc2ccccc12` [Compound 459, N-(3-Carbamoyl-benzo[b]thiophen-2-yl)-N-(4-fluoro-3-trifluoromethyl-benzyl)-benzenesulfonamide], the half-maximal inhibitory concentration (IC50) worked out at 9 nM and the inhibition at 0.2 µM came to 102%.

With `CC(O)c1c(N(Cc2ccc(F)c(C(F)(F)F)c2)S(=O)(=O)c2ccccc2)sc2ccccc12` (stereo not drawn) [Compound 223, N-(4-Fluoro-3-trifluoromethyl-benzyl)-N-[3-(1-hydroxy-ethyl)-benzo[b]thiophen-2-yl]-benzenesulfonamide], the IC50 worked out at 2.3 nM and the inhibition at 0.2 µM is 96%.

In the case of `CS(=O)(=O)Nc1ccc(S(=O)(=O)N(Cc2ccc(F)c(C(F)(F)F)c2)c2sc3ccccc3c2Br)cc1Br` [Compound 661, 3-Bromo-N-(3-bromo-benzo[b]thiophen-2-yl)-N-(4-fluoro-3-trifluoromethyl-benzyl)-4-methanesulfonylamino-benzenesulfonamide], the IC50 was found to be 14.1 nM and the inhibition at 0.2 µM was 100%.

Take `CS(=O)(=O)CCN(c1sc2ccccc2c1Cl)S(=O)(=O)c1ccccc1` [Compound 88, N-(3-Chloro-benzo[b]thiophen-2-yl)-N-(2-methanesulfonyl-ethyl)-benzenesulfonamide]: the concentration for half-maximal inhibition (IC50) is 261 nM and the inhibition at 0.5 µM turned out to be 88%.

On to `CCCCN(c1sc2ccccc2c1C(N)=O)S(=O)(=O)c1ccc(C(=O)OC)cc1` [Compound 465, N-(Butyl)-N-(3-carbamoyl-benzo[b]thiophen-2-yl)-4-carbomethoxy-benzenesulfonamide], for which the IC50 stood at 63 nM and the inhibition at 0.2 µM was 90%.

Regarding `CCS(=O)(=O)N(Cc1ccc(F)c(F)c1)c1sc2ccccc2c1Br` [Compound 152, N-(3-Bromo-benzo[b]thiophen-2-yl)-N-(3,4-difluoro-benzyl)-ethanesulfonamide], the IC50 is 2.6 nM and the inhibition at 0.5 µM was found to be 95%.

As for `CCCCN(C1=C(OC)c2ccccc2S1(=O)=O)S(=O)(=O)c1ccc(C(=O)O)cc1` [Compound 434, N-(Butyl)-N-(3-methoxy-1,1-dioxo-1H-benzo[b]thiophen-2-yl)-4-carboxy-benzenesulfonamide], the IC50 is 17 nM and the inhibition at 0.2 µM came to 90%.

As for `CC1=C(N(CCC2CC2)S(=O)(=O)c2ccccc2)S(=O)(=O)c2ccccc21` [Compound 618, N-(2-Cyclopropyl-ethyl)-N-(3-methyl-1,1-dioxo-benzo[b]thiophen-2-yl)-benzenesulfonamide], the IC50 was found to be 10.4 nM and the inhibition at 0.2 µM came to 101%.

As to `CN(C)S(=O)(=O)N(CCC(F)(F)F)c1sc2ccccc2c1Br` [Compound 269, N-(3-Bromo-benzo[b]thiophen-2-yl)-N-(3,3,3-trifluoropropyl)-N′,N′-dimethylsulfamide], the IC50 came out at 16 nM and the inhibition at 0.2 µM was 94%.

As to `Cc1c(N(Cc2cccc(OC(F)(F)F)c2)S(=O)(=O)C2CC2)sc2ccccc12` [Compound 770, N-(3-Methyl-benzo[b]thiophen-2-yl)-N-(3-trifluoromethoxy-benzyl)-cyclopropanesulfonamide], the IC50 turned out to be 7.2 nM and the inhibition at 0.2 µM came out at 95%.

`Cc1c(N(CCC(F)(F)F)S(=O)(=O)c2cccc(C#N)c2)sc2ccccc12` [Compound 550, N-(3-Methyl-benzo[b]thiophen-2-yl)-N-(3,3,3-trifluoro-propyl)-3-cyano-benzenesulfonamide]: the IC50 was 18.8 nM and the inhibition at 0.2 µM turned out to be 104%.
